US5441563A, “Highly insoluble azole embossing inhibitor and the use thereof” (Armstrong World Industries, Inc., priority 1994, dated 1995)
In brackets after ≈: the same amount, converted by molar mass. Read-outs that look alike come from different tables or passages of the source.

How the values were obtained:
[1] = Inhibitor activity (IA), depth of chemical embossing and degree of expansion ranked against BTA-P (Table II); parameters: key to Inhibitor Activity (IA): 1: Excellent; 2: Very Good; 3: Good; 4: Fair; 5: Poor; None; settings: for Inhibitor Activity (IA): 10% by weight inhibitor in ink, scale 1 to 5, BTA-P benchmark = 1, 7 mil plastisol, 185 °C, 1.9 min
Description: Table II sets forth a number of properties of the examples and comparative examples which were made and tested. Most of these compounds were prepared using the direct milling procedure and then evaluated for inhibitor activity, ghosting and embossing definition.
The inhibited inks (at 10% by weight inhibitor concentration) were printed on 7 mils of an expandable plastisol coated onto a glass mat which was saturated with a non-expandable plastisol. This was done on a flat-bed gravure proof press using a 100 line screen step-wedge gravure plate. The steps ranged from a deep shadow tone to a shallow highlight tone. The inks printed and dried without any tack.
The printed samples were coated with 10 mils of a clear plastisol wearlayer and heated for 1.9±0.1 minutes at an air temperature of 185°±2° C. in a Werner. Mathis oven to fuse and expand the foamable plastisol to about 14 mils (a 2:1 blow ratio). The thickness of the printed coated areas (i.e., restricted area) was measured in mils and compared to the thickness of the expanded unprinted surrounding areas. This difference was recorded as depth of chemical embossing and was used along with the degree of expansion in the inhibited area to access the inhibitor activity (IA).
The inhibitor activity of the BTA-P derivative was established as the benchmark and on a scale of 1 to 5 was given a rating of 1 (five on the scale being less than one mil of overall chemical embossing). This is a subjective ranking where the other compounds were evaluated for inhibitor activity by comparing them to BTA-P, both numerically and visually.

physchem = format: physicochemical; settings: for solubility at 24 h / Solubility in H2O: water; for Solubility in H2O: 24 h
[2] = Stability of dispersions and ink compositions containing the inhibitor; format: physicochemical; settings: for Stability of ink mixture: cationic aqueous ink with cationic dispersion; for Stability of dispersion: cationic dispersion paste, Maquat SC-18
Description: A cationic dispersion of TTA-P was prepared using a quaternary ammonium salt, stearyl dimethylbenzylammonium chloride, (Maquat SC-18, Mason Chemical Co.), as the stabilizer. The product was first diminutized by grinding the coarse powder (TTA-P) for approximately 18 hours in a standard ball mill using a combination of 12 mm diameter spherical and 6 mm diameter×6 mm high cylindrical balls. Approximately 1/2 of the 1 L ball mill volume was filled for the grinding operation. […] The dispersion was then prepared by adding 2.35 parts Maquat SC-18 (85% active) to 37.65 parts deionized water and stirring until dissolved. A total of 40 parts of TTA-P was then added to the surfactant solution in 5 part increments with stirring, followed by agitation with a sonic dismembrator, (Fisher Model 3000). The sonic probe was inserted directly into the suspension and run on the highest setting for 1-2 minutes. A creamy dispersion resulted initially, with viscosity increasing with increasing solids content. The final suspension was a uniform paste with a concentration of 50% by weight solids.
A blue aqueous inhibitor ink was prepared by adding 0.20 parts of CIB 103 Blue Pigment (sold by Penn Color, Inc.) to 20 parts of CIE 94 Extender (sold by Penn Color, Inc.) and stirring to uniform coloration. Then 6.06 parts of the 50% suspension of TTA-P (prepared in Example 4) was then added to the ink mixture and stirred to uniform coloration.
An anionic dispersion paste of TTA-P was prepared with a polyoxyethylene branched nonylphenyl ether phosphate surfactant, (Rhodofac PE-50, Rhone Poulenc). Diminutization of the compound was performed by milling as described in Example 4. Dispersion of the compound was accomplished using the sonic dismembrator, also described in Example 4. Materials were combined in the proportion: 40 parts of deionized water, 2.06 parts of the surfactant and 40 parts of TTA-P. Materials were added in the listed sequence.
The anionic dispersion of TTA-P (Example 6) was added to an anionic ink formulation of Sicpa Corp. The resultant mixture consisted of 20 parts Sicpa Extender 694556, 0.20 parts Sicpa black ink 674554 and 6.06 parts of the 48.7% dispersion of the compound (Example 6).
A portion of BTA-P, the benzotriazole-piperazine derivative, was stably dispersed with the cationic surfactant stearyldimethylbenzylammonium chloride, (Maquat SC-18, Mason Chemical Co.). The compound was milled and dispersed as in Example 4. The materials were combined in the proportion: 20 parts deionized water, 1.18 parts Maquat SC-18, (85% active), and 33.16 parts BTA-P. The materials were added in the listed sequence. […] The paste was 61% by weight of BTA-P.
The cationic dispersion of BTA-P (Example 8) was added to a cationic ink formulation of Penn Color. The mixture consisted of 20 parts Penn Color Extender CIE 94, 0.20 parts Penn Color CIB 103 blue ink and 4.96 parts of the 61% dispersion of BTA-P (Example 8).
A portion of HTTA-P, the hydrogenated tolyltriazolepiperazine derivative, was colloidally dispersed with the cationic surfactant stearyldimethylbenzylammonium chloride, (Maquat SC-18, Mason Chemical Co.). The milling and dispersing procedures of Example 4 were followed. The materials were combined in the proportion: 21 parts deionized water, 1 part Maquat SC-18, (85% active), and 37 parts HTTA-P. The materials were added in the listed sequence. […] The paste was 62.7% by weight of HTTA-P.
The cationic dispersion of HTTA-P (Example 10) was added to a cationic ink formulation of Penn Color. The mixture consisted of 20 parts Extender CIE 94, 0.20 parts CIB 103 blue ink and 4.83 parts of the 62.7% dispersion of HTTA-P (Example 10).
Hitherto, dispersion of these new inhibitors directly into the ink formulation was not considered. The instability problems of other triazole inhibitors seemed to indicate that a surfactant in addition to that found in the ink and extender was required. […]

[3] = as above; format: physicochemical; settings: direct milling in cationic ink extender CIE 94, about 18 hours

Molecule	Solubility in iPrOH (physchem; 1440 min) [% BY WT]	solubility at 24 h (physchem) [µg/mL]	Inhibitor Activity (IA) [1]	further results
c1ccc2c(c1)nnn2CNc1nc(NCn2nnc3ccccc32)nc(NCn2nnc3ccccc32)n1 [Example 3BTA-M]	–	–	3	–
Cc1ccc2c(c1)nnn2CNC(=O)NCn1nnc2cc(C)ccc21 [Example 5-TTA-U, 1,3-bis(5'-tolyltriazol-1'-ylmethyl) urea]	–	–	3	–
c1ccc(-c2nc(NCn3nnc4ccccc43)nc(NCn3nnc4ccccc43)n2)cc1 [BTA-BG, 2,4-bis(benzotriazol-1'-ylmethyl) benzoguanamine]	–	–	4	–
CC(N1CCCC1=O)n1nnc2ccccc21 (stereo not shown) [BTA-PY, 1-(1'-(2'-oxopyrrolidin-1'-yl)ethyl) benzotriazole]	–	–	5	–
N,N'-Bis(Methylcyclohexyltriazol-1-yl Methyl) Piperazine [HTTA-P]	–	–	1	Stability of ink mixture [2]: colloidally stable; Stability of dispersion [2]: stable homogenous paste
c1ccc2c(c1)ncn2CN1CCN(Cn2cnc3ccccc32)CC1 [BI-P, N,N'-Bis(Benzimidazol-1-yl Methyl) Piperazine]	0.211	530 (≈ 1530 µM)	1	–
c1ccc2c(c1)nnn2Cn1nnc2ccccc21 [BTA-D, reference compound]	–	–	N	–
CS(=O)(=O)NCn1nnc2ccccc21 [BTA-MSA, 1-(1'-methanesulfonamido) methyl benzotriazole]	–	–	5	–
CC(n1nnc2ccccc21)n1c2ccccc2c2ccccc21 (stereo not shown) [BTA-C, 1-(1'-(Carbazo-9'-yl)Ethyl) Benzotriazole, reference compound]	–	–	N	–
c1ccc2[nH]cnc2c1 [BI, Benzimidazole]	–	–	2	Solubility in iPrOH (physchem; isopropyl alcohol, room temperature, 24 hours): 15.30 % BY WT; solubility at 24 h (physchem; H2O, room temperature, 24 hours, read-out: Solubility in H2O): 5000 µg/mL (≈ 42300 µM); Inhibitor effectiveness in words [1]: effective inhibitor
O=C(NCn1nnc2ccccc21)NC(=O)NCn1nnc2ccccc21 [BTA-B, 1,5-Bis(Benzotriazol-1'-yl Methyl) Biuret]	–	–	4	–
CN(Cn1nnc2ccccc21)C(=O)N(C)Cn1nnc2ccccc21 [BTA-DMU, 1,3-Bis(benzotriazol-1'-ylmethyl) N,N'-dimethyl urea]	–	–	3	–
O=C(NCn1nnc2ccccc21)c1ccccc1 [BTA-PA, reference compound]	–	–	N	–
CCCCc1ccc2c(c1)nnn2CNC(=O)NCn1nnc2cc(CCCC)ccc21 [Example 5-BBTA-U, 1,3-Bis(5'-Butyl Benzotriazol-1'-yl Methyl) Urea]	–	–	3	–
O=C1CNC(=O)N1Cn1nnc2ccccc21 [BTA-H]	–	–	5	–

Continued, in another order:

Solubility in iPrOH (physchem; 1440 min) [% BY WT]	solubility at 24 h (physchem) [µg/mL]	Molecule	Inhibitor Activity (IA) [1]	further results
0.028	390 (≈ 1400 µM)	c1ccc2c(c1)nnn2CNCn1nnc2ccccc21 [BTA-A, bis(benzotriazol-1-ylmethyl) amine]	1	–
0.051	510 (≈ 930 µM)	O=S(=O)(NCn1nnc2ccccc21)c1cccc2c(S(=O)(=O)NCn3nnc4ccccc43)cccc12 [BTA-NDSA, 1(1',5'-naphthalenedisulfonamido) methyl benzotriazole]	1	–
52.9	–	Tolyltriazole [TTA, reference compound]	2	Solubility in H2O (physchem): 0.55 % BY WT
0.137	110 (≈ 331 µM)	O=C(O)c1ccc(S(=O)(=O)NCn2nnc3ccccc32)cc1 [BTA-4CBSA, N-(Benzotriazol-1-yl Methyl)-4'-Carboxybenzene Sulfonamide]	1	–
1.08	800 (≈ 2710 µM)	ON(Cn1nnc2ccccc21)Cn1nnc2ccccc21 [BTA-NOH, N,N-bis (benzotriazol-1-yl methyl) hydroxylamine]	1	–
53.9	19800 (≈ 166000 µM)	c1ccc2[nH]nnc2c1 [BTA, Benzotriazole, reference compound]	2	–
0.914	6900 (≈ 20500 µM)	O=C(O)CN(Cn1nnc2ccccc21)Cn1nnc2ccccc21 [BTA-G, N,N-bis(benzotriazol-1-ylmethyl) glycine]	1	–
0.007	10 (≈ 28.7 µM)	c1ccc2c(c1)nnn2CN1CCN(Cn2nnc3ccccc32)CC1 [BTA-P, N,N'-bis(benzotriazol-1-ylmethyl) piperazine]	1	Stability of dispersion [3]: homogeneous stable dispersion; Stability of ink mixture [2]: colloidally stable; Stability of dispersion [2]: stable homogenous paste
0.011	10 (≈ 29.6 µM)	S=C(NCn1nnc2ccccc21)NCn1nnc2ccccc21 [BTA-TU, 1,3-bis(benzotriazol-1-ylmethyl) thiourea]	2	–
0.019	60 (≈ 151 µM)	O=C(NN(Cn1nnc2ccccc21)Cn1nnc2ccccc21)c1ccccc1 [BTA-HYR, 1-Bis(Benzotriazol-1'-yl Methyl)-2-Benzoyl Hydrazide]	1	–
> 50	–	1Bis(hydroxyethyl)aminomethyltotyltriazole [TTA-HE, reference compound]	3	Solubility in H2O (physchem): ~50 % BY WT
0.08	20 (≈ 62 µM)	O=C(NCn1nnc2ccccc21)NCn1nnc2ccccc21 [BTA-U, 1,3-bis(benzotriazol-1'-ylmethyl) urea]	1	–
> 50	–	1Bis(2-ethylhexyl)aminomethyltolyltriazole [TTA-EH, reference compound]	2	Solubility in H2O (physchem): < 0.01 % BY WT
0.120	890 (≈ 1790 µM)	O=S(=O)(NCn1nnc2ccccc21)c1cccc(S(=O)(=O)NCn2nnc3ccccc32)c1 [BTA-BDSA, 1(1',3'-benzenedisulfonamido)methyl benzotriazole]	1	–
